By melting point is commonly meant the temperature, or range, at which the solid turns liquid. `O=C(c1c[nH]c2nc(Cl)ccc12)N1CCN2CCC1CC2` registered a melting point of 228 to 229 °C.

For the origin of these results see patent US7456171B2, “1,4-Diazabicyclo[3.2.2]nonanecarboxamide derivatives, preparation and therapeutic use thereof” (Sanofi-Aventis, priority 2002, dated 2008).
